Data on nine molecules can be found in US11090304B2 (Amgen Inc., priority 2018, dated 2021).

By IC50 is commonly meant the concentration needed to halve the response being measured.

Assay [1] has as its system Phosphorylation of ERK1/2 in MIA PaCa-2 cells. As to the kind of experiment: Phospho-ERK1/2 MSD assay in MIA PaCa-2 cells. Type of assay: cell-based. Conditions: read-out: p-ERK IC50 (2 h; MIA PaCa-2), 2 h compound treatment. Put shortly: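 IC50 comes from a 4-parameter logistic fit of MSD phospho-ERK1/2 signal in lysates. Before lysis, MIA PaCa-2 or A549 cells were exposed to titrated compound for 2 or 4 h at 37 °C, followed by a 10 min 10 ng/mL EGF stimulus.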

Assay [2] concerns the target GDP-bound KRAS protein (aa 1-169), containing both G12C and C118A amino acid substitutions (Homo sapiens, UniProt P01116, C118A/G12C). As to the kind of experiment: Coupled nucleotide exchange assay (SOS-mediated, AlphaScreen). Type of assay: biochemical. Conditions: 5 min compound pre-incubation. In general terms: In Alpha technology, singlet oxygen from a donor bead excites a nearby acceptor bead.

Read-outs that look alike come from different tables or passages of the source. Bounds are passed on as bounds.

GDP-bound KRAS protein (aa 1-169), containing both G12C and C118A amino acid substitutions, sequence (P01116 1-169 isoform P01116-2 G12C/C118A): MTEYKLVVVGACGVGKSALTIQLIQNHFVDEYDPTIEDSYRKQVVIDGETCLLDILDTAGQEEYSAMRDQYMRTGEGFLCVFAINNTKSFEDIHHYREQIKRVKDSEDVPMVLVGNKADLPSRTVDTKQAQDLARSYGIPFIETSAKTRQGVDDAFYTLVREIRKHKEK

Turning to `C=CC(=O)N1CCN(c2nc(=O)n(-c3c[nH]nc3C3CC3)c3nc(-c4c(O)cccc4F)c(Cl)cc23)[C@@H](C)C1` [Example 55-21, 6-chloro-1-(3-cyclopropyl-1H-pyrazol-4-yl)-7-(2-fluoro-6-hydroxyphenyl)-4-((2S)-2-methyl-4-(2-propenoyl)-1-piperazinyl)pyrido[2,3-d]pyrimidin-2(1H)-one], the IC50 in assay [1] (Homo sapiens, MIA PaCa-2, 2 h) is no less than 10000 nM. The “Coupled exchange IC50 (5 min)” value in assay [2] was 0.444 | nda μM.

`C=CC(=O)N1CCN(c2nc(=O)n(-c3c(C)ccnc3C(C)C)c3nc(-c4c(O)cccc4Cl)c(F)cc23)[C@@H](C)C1` (single isomer, unassigned) [Example 58-9-1]: in assay [1], the IC50 is 47 nM. For the same molecule, the “Coupled exchange IC50 (5 min)” value in assay [2] is listed as 0.046 | nda μM.

On to `C=CC(=O)N1CCN(c2nc(=O)n(-c3c(C(=O)O)cccc3C(C)C)c3nc(-c4ccccc4F)c(Cl)cc23)[C@@H](C)C1` [Example 132, 2-(6-Chloro-7-(2-fluorophenyl)-4-((2S)-2-methyl-4-(2-propenoyl)-1-piperazinyl)-2-oxopyrido[2,3-d]pyrimidin-1(2H)-yl)-3-(2-propanyl)benzoic acid], for which the IC50 in assay [1] (Homo sapiens, MIA PaCa-2, 2 h) was determined as 10000 nM. Besides, in assay [2], the “Coupled exchange IC50 (5 min)” value is 0.107 | nda μM.

For `C=CC(=O)N1CCN(c2nc(=O)n(-c3ccccc3S(F)(F)(F)(F)F)c3nc(-c4c(O)cccc4F)c(Cl)cc23)[C@@H](C)C1` [Example 56-1, 6-Chloro-7-(2-fluoro-6-hydroxy-phenyl)-4-[(2S)-2-methyl-4-prop-2-enoyl-piperazin-1-yl]-1-[2-(pentafluoro-λ^6-sulfanyl)phenyl]pyrido[2,3-d]pyrimidin-2-one], the IC50 in assay [1] (Homo sapiens, MIA PaCa-2, 2 h) turned out to be 359 nM. In assay [2], the “Coupled exchange IC50 (5 min)” value was 0.149 | nda μM.

For the molecule `C=CC(=O)N1CCN(c2nc(=O)n(-c3c(C(C)C)nc[nH]c3=O)c3nc(-c4ccccc4F)c(Cl)cc23)[C@@H](C)C1` [Example 54-108, 6-chloro-7-(2-fluorophenyl)-4-((2S)-2-methyl-4-(2-propenoyl)-1-piperazinyl)-1-(6-oxo-4-(2-propanyl)-1,6-dihydro-5-pyrimidinyl) pyrido[2,3-d]pyrimidin-2(1H)-one], the IC50 in assay [1] (Homo sapiens, MIA PaCa-2, 2 h) was determined as 3770 nM. Further, the “Coupled exchange IC50 (5 min)” value in assay [2] is on record as 0.434 | nda μM.

On to `C=CC(=O)N1CCN(c2nc(CN(C)C)c(-c3ccccc3C(C)C)c3nc(-c4ccccc4F)c(Cl)cc23)[C@@H](C)C1` [Example 86-1, 1-((3S)-4-(3-Chloro-7-((dimethylamino)methyl)-2-(2-fluorophenyl)-8-(2-isopropylphenyl)-1,6-naphthyridin-5-yl)-3-methylpiperazin-1-yl)prop-2-en-1-one], for which, in assay [1] (Homo sapiens, MIA PaCa-2, 2 h), the IC50 was determined as 4300 nM. In addition, in assay [2], the “Coupled exchange IC50 (5 min)” value was 3.95 | nda μM.

As for `C=CC(=O)N1CCN(c2nc(=O)n(-c3c(N)cccc3C(C)C)c3nc(-c4ccccc4F)c(Cl)cc23)[C@@H](C)C1` [Example 155, 1-(2-Amino-6-(2-propanyl)phenyl)-6-chloro-7-(2-fluorophenyl)-4-((2S)-2-methyl-4-(2-propenoyl)-1-piperazinyl)pyrido[2,3-d]pyrimidin-2(1H)-one], the IC50 in assay [1] (Homo sapiens, MIA PaCa-2, 2 h) turned out to be 103 nM. In addition, in assay [2], the “Coupled exchange IC50 (5 min)” value was 0.108 | nda μM.

For `C=CC(=O)N1CCN(c2nc(=O)n(-c3ccnn3C3CCC3)c3nc(-c4ccccc4F)c(Cl)cc23)[C@@H](C)C1` [Example 54-29, 6-chloro-1-(1-cyclobutyl-1H-pyrazol-5-yl)-7-(2-fluorophenyl)-4-((2S)-2-methyl-4-(2-propenoyl)-1-piperazinyl) pyrido[2,3-d]pyrimidin-2(1H)-one], the IC50 in assay [1] (Homo sapiens, MIA PaCa-2, 2 h) turned out to be 717 nM. In addition, the “Coupled exchange IC50 (5 min)” value in assay [2] was 0.406 | nda μM.

Turning to `C=CC(=O)N1CCN(c2nc(=O)n(-c3nccnc3C(C)C)c3nc(-c4ccccc4F)c(F)cc23)[C@@H](C)C1` [Example 57-2, 6-fluoro-7-(2-fluorophenyl)-4-((2S)-2-methyl-4-(2-propenoyl)-1-piperazinyl)-1-(3-(2-propanyl)-2-pyrazinyl)pyrido[2,3-d]pyrimidin-2(1H)-one], in assay [1] (Homo sapiens, MIA PaCa-2, 2 h), the IC50 stood at 300 nM. Besides, in assay [2], the “Coupled exchange IC50 (5 min)” value is 0.74 | nda μM.
